Results from patent US20230339886A1 (University of Florida Research Foundation, Incorporated, priority 2020, published 2023).

What follows are compounds tested against T1, REV-ERBα LBD (human; residues 281-614 Δ324-422) (Homo sapiens, UniProt P20393, DEL324-422) (assay: TR-FRET corepressor interaction assay (REV-ERBα LBD, FITC-SMRT peptide)). Conditions: FITC-SMRT peptide, read-out: REVERBα agonism (EC50 class, FRET assay).
T1 construct: 6×Histag-REV-ERBα LBD (human; residues 281-614 Δ324-422); made in house; host or cells: Escherichia coli
Format: biochemical
Summary of the method: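 Compound serial dilutions (in DMSO, triplicate) incubated 2 h at 4 °C; Tb donor excited at 340 nm, emission read at 495 nm and FITC acceptor at 520 nm. TR-FRET ratio (520/495 nm) plotted against ligand concentration and fitted to a sigmoidal dose-response curve.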

T1 sequence (P20393 with tags, fused parts or gaps DEL324-422): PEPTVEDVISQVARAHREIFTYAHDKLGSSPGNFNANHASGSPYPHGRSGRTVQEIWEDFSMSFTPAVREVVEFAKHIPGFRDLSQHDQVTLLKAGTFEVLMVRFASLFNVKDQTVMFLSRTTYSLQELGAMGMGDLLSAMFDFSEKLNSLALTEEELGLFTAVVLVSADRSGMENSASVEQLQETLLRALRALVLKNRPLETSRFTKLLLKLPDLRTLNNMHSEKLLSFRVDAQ
T1 sequence (Q9Y618 2335-2356 partner limits assumed): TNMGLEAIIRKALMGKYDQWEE

Q: How did the EC50 turn out when `CC(C)(C)Cn1cc([C@H](NS(=O)(=O)C2CC2(F)F)C(F)(F)F)c2ccc(-c3ccccc3C(F)(F)F)cc21` (stereo partly drawn) [Example 515, 2,2-difluoro-N—((S)-2,2,2-trifluoro-1-(1-neopentyl-6-(2-(trifluoromethyl)phenyl)-1H-indol-3-yl)ethyl)cyclopropane-1-sulfonamide] was run?
A: 500 to 3000 nM

Q: How did the EC50 turn out when `CC(C)C(=O)n1cc([C@H](NS(=O)(=O)C2CCC2)C(F)(F)F)c2cc(F)c(-c3ccccc3C(F)(F)F)cc21` [Example 505, (S)—N-(2,2,2-trifluoro-1-(5-fluoro-1-isobutyryl-6-(2-(trifluoromethyl)phenyl)-1H-indol-3-yl)ethyl)cyclobutanesulfonamide] was run?
A: < 500 nM

Q: For `CC(C)(C)Cn1cc([C@H](NS(=O)(=O)C2CC2)C(F)F)c2ccc(-c3ccccc3C(F)(F)F)nc21` [Example 547, (S)—N-(2,2-difluoro-1-(1-neopentyl-6-(2-(trifluoromethyl)phenyl)-1H-pyrrolo[2,3-b]pyridin-3-yl)ethyl)cyclopropanesulfonamide], which EC50 is on record?
A: < 500 nM

Q: `CC(C)Cn1cc([C@H](NS(=O)(=O)C2CC2)C(F)(F)F)c2cc(F)c(-c3cscn3)cc21` [Example 457, N-[(1S)-2,2,2-trifluoro-1-(5-fluoro-1-isobutyl-6-thiazol-4-yl-indol-3-yl)ethyl]cyclopropanesulfonamide] was tested. Which EC50 did it give?
A: 500 to 3000 nM

Q: With `CC(C)(C)Cn1cc([C@@H](CF)NS(=O)(=O)C2CCC2)c2ccc(-c3ccccc3C(F)(F)F)cc21` [Example 516, (S)—N-(2-fluoro-1-(1-neopentyl-6-(2-(trifluoromethyl)phenyl)-1H-indol-3-yl)ethyl)cyclobutanesulfonamide] as the compound, how does the EC50 read?
A: < 500 nM

Q: `CC(C)(C)Cn1cc([C@H](NS(=O)(=O)C2CCC2)C(F)F)c2ccc(-c3ccccc3C(F)(F)F)nc21` [Example 518, (S)—N-(2,2-difluoro-1-(1-neopentyl-6-(2-(trifluoromethyl)phenyl)-1H-pyrrolo[2,3-b]pyridin-3-yl)ethyl)cyclobutanesulfonamide] was tested. Which EC50 did it give?
A: < 500 nM

Q: With `CC(C)(C)Cn1cc([C@H](NS(=O)(=O)C2CC2)C(F)(F)F)c2cc(C(F)(F)F)c(-c3ccncc3)cc21` [Example 458, (S)—N-(2,2,2-trifluoro-1-(1-neopentyl-6-(pyridin-4-yl)-5-(trifluoromethyl)-1H-indol-3-yl)ethyl)cyclopropanesulfonamide] as the compound, how does the EC50 read?
A: 500 to 3000 nM

Q: How did the EC50 turn out when `CCCn1cc([C@H](NS(=O)(=O)C2CCC2)C(F)(F)F)c2ccc(-c3ccccc3C(F)(F)F)cc21` [Example 438, (S)—N-(2,2,2-trifluoro-1-(1-propyl-6-(2-(trifluoromethyl)phenyl)-1H-indol-3-yl)ethyl)cyclobutanesulfonamide] was run?
A: < 500 nM

Same assay, conditions: Table 2, read-out: REVERBα agonism (EC50 class, FRET assay)

Q: Which EC50 does the source give for `CN(C)S(=O)(=O)NCCn1cc(CC(C)(C)C)c2cc(-c3ccncc3)ccc21` [Example 189, N-{2-[5-(pyridin-4-yl)-3-(2,2-dimethylpropyl)-1H-indol-1-yl]ethyl}-N,N-dimethylsulfuric diamide] here?
A: < 500 nM

Q: Which EC50 does the source give for `CC(C)(C)Cn1cc([C@H](NS(=O)(=O)C2CC2)C(F)(F)F)c2ccc(-c3ncccn3)cc21` [Example 382, (S)—N-(2,2,2-trifluoro-1-(1-neopentyl-6-(pyrimidin-2-yl)-1H-indol-3-yl)ethyl)cyclopropanesulfonamide] here?
A: 500 to 3000 nM

Q: With `CC(C)Cn1cc(C(NS(=O)(=O)N(C)C)C(F)(F)F)c2ccc(-c3ccccc3C(F)(F)F)cc21` (stereo not drawn) [Example 223, dimethyl({2,2,2-trifluoro-1-[1-(2-methylpropyl)-6-[2-(trifluoromethyl)phenyl]-1H-indol-3-yl]ethyl}sulfamoyl)amine] as the compound, how does the EC50 read?
A: < 500 nM

Q: With `Cc1ccc(-c2ccc3c(CCS(=O)(=O)C4CC4)cn(CC(C)(C)C)c3c2)c(C(F)(F)F)c1` [Example 408, 3-(2-(cyclopropylsulfonyl)ethyl)-6-(4-methyl-2-(trifluoromethyl)phenyl)-1-neopentyl-1H-indole] as the compound, how does the EC50 read?
A: < 500 nM

Q: `CN(C)S(=O)(=O)NCCc1cn(CC(C)(C)C)c2cc(Br)ccc12` [Example 165, ({2-[6-bromo-1-(2,2-dimethylpropyl)-1H-indol-3-yl]ethyl}sulfamoyl)dimethylamine] was tested. Which EC50 did it give?
A: 500 to 3000 nM

Q: Which EC50 does the source give for `CC(C)Cn1cc(CCNS(=O)(=O)N(C)C)c2cc(F)c(-c3ccncc3)cc21` [Example 176, ({2-[5-fluoro-1-(2-methylpropyl)-6-(pyridin-4-yl)-1H-indol-3-yl]ethyl}sulfamoyl)dimethylamine] here?
A: < 500 nM

Q: With `CC(C)n1cc(CCNS(=O)(=O)N(C)C)c2ccc(-c3ccncc3)cc21` [Example 129, N′-{2-[6-(pyridin-4-yl)-1-isopropyl-1H-indol-3-yl]ethyl}-N,N-dimethylsulfuric diamide] as the compound, how does the EC50 read?
A: 500 to 3000 nM

Q: `CC(C)(C)Cn1cc([C@H](NS(=O)(=O)N2CCC2)C(F)(F)F)c2cc(F)c(-c3ccccc3C(F)(F)F)cc21` [Example 346, (S)—N-(2,2,2-trifluoro-1-(5-fluoro-1-neopentyl-6-(2-(trifluoromethyl)phenyl)-1H-indol-3-yl)ethyl)azetidine-1-sulfonamide] was tested. Which EC50 did it give?
A: < 500 nM

Q: How did the EC50 turn out when `CC(C)Cn1cc(CNS(=O)(=O)C(C)C)c2cc(F)c(-c3ccccc3)cc21` [Compound 266] was run?
A: < 500 nM

Q: For `CC(CO)(CCl)Cn1cc([C@H](NS(=O)(=O)C2CC2)C(F)(F)F)c2cc(F)c(-c3ccccc3C(F)(F)F)cc21` (stereo partly drawn) [Example 404, N-[(1S)-1-[1-[2-(chloromethyl)-3-hydroxy-2-methyl-propyl]-5-fluoro-6-[2-(trifluoromethyl)phenyl]indol-3-yl]-2,2,2-trifluoro-ethyl]cyclopropanesulfonamide], which EC50 is on record?
A: 500 to 3000 nM

Q: With `CN(C)S(=O)(=O)N[C@@H](c1cn(CC(C)(C)C)c2cc(-c3ccccc3Cl)ccc12)C(F)(F)F` [Example 338, {[(1S)-1-[6-(2-chlorophenyl)-1-(2,2-dimethylpropyl)-1H-indol-3-yl]-2,2,2-trifluoroethyl]sulfamoyl}dimethylamine] as the compound, how does the EC50 read?
A: < 500 nM

Q: Which EC50 does the source give for `CN(C)C(=O)Cn1cc(CCNS(=O)(=O)N(C)C)c2ccc(Br)cc21` [Example 167, 2-(6-bromo-3-(2-((N,N-dimethylsulfamoyl)amino)ethyl)-1H-indol-1-yl)-N,N-dimethylacetamide] here?
A: 500 to 3000 nM

Q: Which EC50 does the source give for `CC(C)Cn1cc(C(C)CNS(=O)(=O)C2CC2)c2ccc(-c3ccccc3)cc21` (stereo not drawn) [Compound 256] here?
A: > 3000 nM

Q: With `CN(C)S(=O)(=O)NCCc1cn(Cc2cccnc2)c2cc(Br)ccc12` [Example 163, [(2-{6-bromo-1-[(pyridin-3-yl)methyl]-1H-indol-3-yl}ethyl)sulfamoyl]dimethylamine] as the compound, how does the EC50 read?
A: 500 to 3000 nM

Q: For `CC(C)Cn1cc(C(NS(=O)(=O)C(C)C)C(F)(F)F)c2ccc(-c3ccccc3C(F)(F)F)cc21` (stereo not drawn) [Example 224, N-(2,2,2-trifluoro-1-(1-isobutyl-6-(2-(trifluoromethyl)phenyl)-1H-indol-3-yl)ethyl)propane-2-sulfonamide], which EC50 is on record?
A: 500 to 3000 nM

Q: How did the EC50 turn out when `CC(C)Cc1cn(C2CCN(S(=O)(=O)C(C)C)C2)c2ccc(-c3ccncc3)cc12` (stereo not drawn) [Compound 44] was run?
A: 500 to 3000 nM

Q: `CN(C)S(=O)(=O)NCCc1cn(C(=O)c2cc(Cl)cc(Cl)c2)c2cc(-c3ccncc3)ccc12` [Example 151, N′-{2-[6-(pyridin-4-yl)-1-(3,5-dichlorobenzoyl)-1H-indol-3-yl]ethyl}-N,N-dimethylsulfuric diamide] was tested. Which EC50 did it give?
A: > 3000 nM

Q: For `COC(=O)Cn1cc(CCNS(=O)(=O)N(C)C)c2ccc(Br)cc21` [Example 164, methyl 2-(6-bromo-3-(2-((N,N-dimethylsulfamoyl)amino)ethyl)-1H-indol-1-yl)acetate], which EC50 is on record?
A: > 3000 nM

Q: For `CC(C)(C)Cn1cc([C@H](NS(=O)(=O)N2CCCC2)C(F)(F)F)c2cc(F)c(-c3ccccc3C(F)(F)F)cc21` [Example 347, (S)—N-(2,2,2-trifluoro-1-(5-fluoro-1-neopentyl-6-(2-(trifluoromethyl)phenyl)-1H-indol-3-yl)ethyl)pyrrolidine-1-sulfonamide], which EC50 is on record?
A: < 500 nM

Q: Which EC50 does the source give for `Cc1cc2c(cc1F)c([C@H](NS(=O)(=O)C1CC1)C(F)(F)F)cn2CC(C)C` [Example 312, (S)—N-(2,2,2-trifluoro-1-(5-fluoro-1-isobutyl-6-methyl-1H-indol-3-yl)ethyl)cyclopropanesulfonamide] here?
A: < 500 nM

Q: With `CC(C)Cn1cc(CNS(=O)(=O)N2CCCC2)c2ccc(-c3ccncc3)cc21` [Compound 244] as the compound, how does the EC50 read?
A: < 500 nM

Q: How did the EC50 turn out when `CC(C)S(=O)(=O)NCCc1cn(CCC(C)(C)C)c2cc(-c3ccncc3)ccc12` [Compound 270] was run?
A: < 500 nM

Q: With `CC(C)(C)Cc1cn(CCNS(=O)(=O)C2CC2)c2cc(F)c(Br)cc12` [Example 293, N-(2-(5-bromo-6-fluoro-3-neopentyl-1H-indol-1-yl)ethyl)cyclopropanesulfonamide] as the compound, how does the EC50 read?
A: > 3000 nM

Q: For `CC(C)Cn1cc(CCCNS(=O)(=O)N(C)C)c2ccc(-c3ccncc3)cc21` [Compound 235], which EC50 is on record?
A: > 3000 nM

Q: `CC(C)Cn1cc(CCNS(=O)(=O)N(C)C)c2ccc(C3CCNCC3)cc21` [Compound 102, dimethyl({2-[1-(2-methylpropyl)-6-(piperidin-4-yl)-1H-indol-3-yl]ethyl}sulfamoyl)amine] was tested. Which EC50 did it give?
A: > 3000 nM

Q: How did the EC50 turn out when `N#CC1(Cn2cc([C@H](NS(=O)(=O)C3CCC3)C(F)(F)F)c3cc(F)c(-c4ccccc4C(F)(F)F)cc32)CC1` [Example 392, [(1S)-1-[1-[(1-cyanocyclopropyl)methyl]-5-fluoro-6-[2-(trifluoromethyl)phenyl]indol-3-yl]-2,2,2-trifluoro-ethyl]cyclobutanesulfonamide] was run?
A: < 500 nM

Q: Which EC50 does the source give for `CC(=O)n1cc(CCNS(=O)(=O)N(C)C)c2ccc(-c3ccncc3)cc21` [Compound 42, 1-(3-{2-[(dimethylsulfamoyl)amino]ethyl}-6-(pyridin-4-yl)-1H-indol-1-yl)ethan-1-one] here?
A: > 3000 nM

Q: Which EC50 does the source give for `CN(C)S(=O)(=O)NCCc1cn(Cc2cccc(C(F)(F)F)c2)c2cc(-c3ccncc3)ccc12` [Example 142, N-{2-[6-(pyridin-4-yl)-1-(3-trifluoromethylbenzyl)-1H-indol-3-yl]ethyl}-N,N-dimethyl-sulfuric diamide] here?
A: 500 to 3000 nM
